Results published in patent publication US20170081357A1, “[…] ACTIVE 17-NITROGEN SUBSTITUTED ESTRATREINTHIAZOLE DERIVATIVES AS INHIBITORS OF 17.BETA-HYDROXYSTEROID DEHYDROGENASE” (FORENDO PHARMA LTD, priority 2013, published 2017).

Experiments:
[1] = Metabolic stability assay, human liver microsome and homogenate incubations; assay type: in vitro ADME; conditions: human liver homogenate or microsomes, LC/PDA/TOF-MS
Method: The in vitro metabolic stability of the compounds of the invention was determined for exemplified compounds using human liver microsome and homogenate incubations. The incubation time points used with or without appropriate cofactors were 0 min and 60 min. Samples were collected at both time points and substrates were detected using LC/PDA/TOF-MS. In vitro metabolic stability (% remaining after 60 min in human liver homogenate or microsomes) of the compounds were calculated and the results are summarized in Table 3.

[2] = target: T1, recombinant human 17β-HSD1 (Homo sapiens, UniProt P14061); assay: Inhibition of recombinant human 17β-HSD1 (conversion of 3H-estrone to estradiol, HPLC); assay type: biochemical; conditions: inhibitor 1 μM; 30 nM estrone, 1 mM NADPH, 30 min at RT; read-out: 17β-HDS1 Inhibition % at 1 μM
T1 construct: made in house; host or cells: Sd9 (Sf9) insect cells, baculovirus (Bac to Bac Expression System); microsomal fraction
T1 sequence (P14061 1-328): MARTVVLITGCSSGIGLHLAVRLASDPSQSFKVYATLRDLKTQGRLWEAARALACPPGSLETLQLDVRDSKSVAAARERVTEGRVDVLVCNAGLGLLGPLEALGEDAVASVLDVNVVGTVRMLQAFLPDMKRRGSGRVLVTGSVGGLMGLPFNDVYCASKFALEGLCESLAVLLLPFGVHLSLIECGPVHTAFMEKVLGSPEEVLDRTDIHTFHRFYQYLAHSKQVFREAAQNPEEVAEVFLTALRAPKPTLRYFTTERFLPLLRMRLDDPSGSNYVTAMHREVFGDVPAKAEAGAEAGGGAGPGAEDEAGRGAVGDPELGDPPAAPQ
Method: 17β-HSD1 production and isolation: Recombinant baculovirus was generated by the “Bac to Bac Expression System” (Invitrogen). Recombinant bacmid was transfected to Sd9 insect cells using “Cellfectin Reagent” (Invitrogen). 60 h later cells were harvested; the microsomal fraction was isolated as described by Puranen, T. J., Poutanen, M. H., Peltoketo, H. E., Vihko, P. T. and Vihko, R. K. (1994) Site-directed mutagenesis of the putative active site of human 17 β-hydroxysteroid dehydrogenase type 1. Biochem. J. 304: 289-293. Aliquots were stored frozen until determination of enzymatic activity.
Assay—Inhibition of recombinant human 17β-HSD1: Recombinant protein (1 μg/ml) was incubated in 20 mM KH2PO4 pH 7.4 with 30 nM estrone (including 800 000 cpm/ml of ^3H-estrone) and 1 mM NADPH for 30 min at RT, in the presence of the potential inhibitor at concentrations 1 μM or 0.1 μM. Inhibitor stock solutions were prepared in DMSO. Final concentration of DMSO was adjusted to 1% in all samples. The enzyme reaction was stopped by addition of 10% trichloroacetic acid (final concentration). Samples were centrifuged in a microtiter plate at 4000 rpm for 10 min. Supernatants were applied to reverse phase HPLC on a Waters Symmetry C18 column, equipped with a Waters Sentry Guard column. Isocratic HPLC runs were performed at RT at a flow rate of 1 ml/min in acetonitrile:water 48:52 as running solvent. Radioactivity was monitored in the eluate by a Packard Flow Scintillation Analyzer. Total radioactivity for estrone and estradiol were determined in each sample and percent conversion of estrone to estradiol was calculated according to the following formula:
(§1) Percent inhibition was calculated flowingly: % inhibition=100−% conversion

[3] = target: T2, recombinant human 17β-HSD2 (Homo sapiens, UniProt P37059); assay: Inhibition of recombinant human 17β-HSD2 (conversion of 3H-estradiol to estrone, HPLC); assay type: biochemical; conditions: inhibitor 1 μM; 50 nM estradiol, 1 mM NADH, 30 min at RT
T2 construct: made in house; host or cells: Sd9 (Sf9) insect cells, baculovirus (Bac to Bac Expression System); fractionated cell extract
T2 sequence (P37059 1-387): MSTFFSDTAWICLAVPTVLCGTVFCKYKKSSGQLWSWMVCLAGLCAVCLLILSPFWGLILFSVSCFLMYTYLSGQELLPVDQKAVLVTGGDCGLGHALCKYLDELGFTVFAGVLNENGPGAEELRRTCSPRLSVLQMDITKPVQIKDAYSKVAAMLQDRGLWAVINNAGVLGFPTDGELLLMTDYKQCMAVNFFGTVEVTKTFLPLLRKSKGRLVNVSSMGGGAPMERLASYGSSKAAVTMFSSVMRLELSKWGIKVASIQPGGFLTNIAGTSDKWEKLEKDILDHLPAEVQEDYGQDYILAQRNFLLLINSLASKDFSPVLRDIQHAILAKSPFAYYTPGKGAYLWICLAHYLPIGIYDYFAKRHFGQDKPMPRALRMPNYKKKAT
Method: 17β-HSD2 production and isolation: Similarly to 17β-HSD1 the Recombinant baculovirus was generated by the “Bac to Bac Expression System” (Invitrogen). Recombinant bacmid was transfected to Sd9 insect cells using “Cellfectin Reagent” (Invitrogen). 60 h later cells were harvested and supernatant were fractionated by the following protocol: • cells were dissolved into 40 ml of A-buffer (40 mM TRIS, pH8.0, 20% glycerol, 20 μM NAD, 0.4 mM PMSF, 150 mM NaCl, 0.5% dodecyl-β-maltoside+protease inhibitor cocktail) • cells were sonicated • lysate was incubated on ice for 15 min • lysate was centrifuged 5000 rpm 15 min, +4° C. • centrifugation of the supernatant 180 000 g 30 min, +4° C. • pellet was dissolved into 8 ml of A-buffer • not resuspended material was removed by centrifugation 5000 rpm 15 min, +4° C. • the clear supernatant was divided into 100 μl aliquots and were stored frozen until determination of enzymatic activity.
The amount of 17β-HSD2 was analysed by immunoblotting and total protein concentration of each extract batch was determined.
Assay—Inhibition of recombinant human 17β-HSD2: Recombinant protein (4 μg/ml) was incubated in 20 mM KH2PO4 pH 8.5 with 50 nM estradiol (including 800 000 cpm/ml of ^3H-estradiol) and 1 mM NADH for 30 min at RT, in the presence of the potential inhibitor at concentrations 1 μM or 0.1 μM. Inhibitor stock solutions were prepared in DMSO. Final concentration of DMSO was adjusted to 1% in all samples. The enzyme reaction was stopped by addition of 10% trichloroacetic acid (final concentration). Samples were centrifuged in a microtiter plate at 4000 rpm for 10 min. Supernatants were applied to reverse phase HPLC on a Waters Symmetry C18 column, equipped with a Waters Sentry Guard column. Isocratic HPLC runs were performed at RT at a flow rate of 1 ml/min in acetonitrile:water 48:52 as running solvent. Radioactivity was monitored in the eluate by a Packard Flow Scintillation Analyzer. Total radioactivity for estrone and estradiol were determined in each sample and percent conversion of estradiol to estrone was calculated according to the following formula:
as §1

Cc1cnc(NC(=O)CC[C@@H]2C/C(=N\O)[C@@]3(C)CCC4c5cc(C(C)(C)C)c(O)cc5CCC4C23)s1 (stereo partly drawn) [Compound 58, 3-{(13S,15R)-2-tert-Butyl-3-hydroxy-17-[(E)-hydroxyimino]-13-methyl-7,8,9,11,12,13,14,15,16,17-decahydro-6H-cyclopenta[a]phenanthren-15-yl}-N-(5-methylthiazol-2-yl)propanamide]
In vitro metabolic stability, % remaining after 60 min [1]: 100%

Cc1cnc(NC(=O)CC[C@@H]2C/C(=N\O)[C@@]3(C)CCC4c5cc([N+](=O)[O-])c(O)cc5CCC4C23)s1 (stereo partly drawn) [Compound 60, 3-{(13S,15R)-3-Hydroxy-2-nitro-17-[(E)-hydroxyimino]-13-methyl-7,8,9,11,12,13,14,15,16,17-decahydro-6H-cyclopenta[a]phenanthren-15-yl}-N-(5-methylthiazol-2-yl)propanamide]
In vitro metabolic stability, % remaining after 60 min [1]: 84%

Cc1cnc(NC(=O)CC[C@@H]2C/C(=N\O)[C@@]3(C)CCC4c5ccc(O)c(Br)c5CCC4C23)s1 (stereo partly drawn) [Compound 63, 3-{(13S,15R)-4-Bromo-3-hydroxy-17-[(E)-hydroxyimino]-13-methyl-7,8,9,11,12,13,14,15,16,17-decahydro-6H-cyclopenta[a]phenanthren-15-yl}-N-(5-methylthiazol-2-yl)propanamide]
In vitro metabolic stability, % remaining after 60 min [1]: 64%

Cc1cnc(NC(=O)CC[C@@H]2C/C(=N\OCC(=O)O)[C@@]3(C)CCC4c5ccc(O)cc5CCC4C23)s1 (stereo partly drawn) [Compound 109, [(13S,15R)-3-Hydroxy-13-methyl-15-[2-(5-methylthiazol-2-ylcarbamoyl)-ethyl]-6,7,8,9,11,12,13,14,15,16-decahydro-cyclopenta[a]phenanthren-(17E)-ylideneaminooxy]-acetic acid]
inhibition at 1 µM [2]: 56%
inhibition at 1 µM [3]: 0%

Cc1cnc(NC(=O)CC[C@@H]2C/C(=N\OCC(=O)O)[C@@]3(C)CCC4c5cc(C(C)(C)C)c(O)cc5CCC4C23)s1 (stereo partly drawn) [Compound 110, [(13S,15R)-2-tert-Butyl-3-hydroxy-13-methyl-15-[2-(5-methylthiazol-2-ylcarbamoyl)-ethyl]-6,7,8,9,11,12,13,14,15,16-decahydro-cyclopenta[a]phenanthren-(17E)-ylideneaminooxy]-acetic acid]
inhibition at 1 µM [2]: 70%
inhibition at 1 µM [3]: 7%

Cc1cnc(NC(=O)CC[C@@H]2C/C(=N\OCC(=O)O)[C@@]3(C)CCC4c5cc([N+](=O)[O-])c(O)cc5CCC4C23)s1 (stereo partly drawn) [Compound 111, [(13S,15R)-3-Hydroxy-13-methyl-2-nitro-15-[2-(5-methylthiazol-2-ylcarbamoyl)-ethyl]-6,7,8,9,11,12,13,14,15,16-decahydro-cyclopenta[a]phenanthren-(17E)-ylideneaminooxy]-acetic acid]
inhibition at 1 µM [2]: 55%
inhibition at 1 µM [3]: 0%

Cc1cnc(NC(=O)CC[C@@H]2C/C(=N\NC(N)=O)[C@@]3(C)CCC4c5ccc(O)cc5CCC4C23)s1 (stereo partly drawn) [Compound 112, 3-{(13S,15R)-3-Hydroxy-17-[(E)-N-urea-imino]-13-methyl-7,8,9,11,12,13,14,15,16,17-decahydro-6H-cyclopenta[a]phenanthren-15-yl}-N-(5-methylthiazol-2-yl)propanamide]
inhibition at 1 µM [2]: 83%
inhibition at 1 µM [3]: 5%

Cc1cnc(NC(=O)CC[C@@H]2C/C(=N\NC(N)=O)[C@@]3(C)CCC4c5cc(Br)c(O)c(Br)c5CCC4C23)s1 (stereo partly drawn) [Compound 113, 3-{(13S,15R)-2,4-Dibromo-3-hydroxy-17-[(E)-N-urea-imino]-13-methyl-7,8,9,11,12,13,14,15,16,17-decahydro-6H-cyclopenta[a]phenanthren-15-yl}-N-(5-methylthiazol-2-yl)propanamide]
inhibition at 1 µM [2]: 58%
inhibition at 1 µM [3]: 1%

Cc1cnc(NC(=O)CC[C@@H]2C/C(=N\O)[C@@]3(C)CCC4c5ccc6ocnc6c5CCC4C23)s1 (stereo partly drawn) [Compound 114, 3-{(7aS,10R)-8-[(E)-Hydroxyimino]-7a-methyl-6,7,7a,8,9,10,10a,10b,11,12-decahydro-5bH-3-oxa-1-aza-dicyclopenta[a,i]phenathren-10-yl}-N-(5-methylthiazol-2-yl)propanamide]
inhibition at 1 µM [2]: 70%
inhibition at 1 µM [3]: 5%

Cc1cnc(NC(=O)CC[C@@H]2c3conc3[C@@]3(C)CCC4c5cc(Br)c(O)c(Br)c5CCC4C23)s1 (some centres unmarked) [Compound 119]
inhibition at 1 µM [2]: 79%
inhibition at 1 µM [3]: 28%

Cc1cnc(NC(=O)CC[C@@H]2C/C(=N\CC(C)C)[C@@]3(C)CCC4c5ccc(O)cc5CCC4C23)s1 (stereo partly drawn) [Compound 121, 3-{(13S,15R)-3-Hydroxy-17-[(E)-isobutylimino]-13-methyl-7,8,9,11,12,13,14,15,16,17-decahydro-6H-cyclopenta[a]phenanthren-15-yl}-N-(5-methylthiazol-2-yl)propionamide]
inhibition at 1 µM [2]: 94%
inhibition at 1 µM [3]: 7%

COCC/N=C1\C[C@@H](CCC(=O)Nc2ncc(C)s2)C2C3CCc4cc(O)ccc4C3CC[C@]12C (stereo partly drawn) [Compound 122, 3-{(13S,15R)-3-Hydroxy-17-[(E)-2-methoxy-ethylimino]-13-methyl-7,8,9,11,12,13,14,15,16,17-decahydro-6H-cyclopenta[a]phenanthren-15-yl}-N-(5-methylthiazol-2-yl)propionamide]
inhibition at 1 µM [2]: 94%
inhibition at 1 µM [3]: 5%

COCC/N=C1\C[C@@H](CCC(=O)Nc2ncc(C)s2)C2C3CCc4cc(O)c(C(C)(C)C)cc4C3CC[C@]12C (stereo partly drawn) [Compound 123, 3-{(13S,15R)-2-tert-Butyl-3-hydroxy-17-[(E)-2-methoxy-ethylimino]-13-methyl-7,8,9,11,12,13,14,15,16,17-decahydro-6H-cyclopenta[a]phenanthren-15-yl}-N-(5-methylthiazol-2-yl)propionamide]
inhibition at 1 µM [2]: 94%
inhibition at 1 µM [3]: 30%
